# Measured values published in patent US10828301B2, “2,4-pyrimidinediamine compounds and their uses” (Rigel Pharmaceuticals, Inc, priority 2002, dated 2020).
# Assays:
# [1] = test system: cultured human mast cells (CHMC); assay: CHMC high cell density IgE activation: degranulation (hexos, tryptase, histamine), leukotriene (LTC4) and cytokine (TNFalpha, IL-13) assays; format: cell-based; details: anti-IgE activation
# Procedure: After sensitizing, cells are counted, pelleted (1000 rpm, 5-10 minutes), and resuspended at 1-2×10^6 cells/ml in MT buffer. Add 100 ul of cell suspension to each well and 100 ul of compound dilutions. The final vehicle concentration is 0.5% DMSO. Incubate at 37° C. (5% CO2) for 1 hour. After 1 hour of compound treatment, stimulate cells with 6× anti-IgE. Mix wells with the cells and allow plates to incubate at 37° C. (5% CO2) for one hour. After 1 hour incubation, pellet cells (10 minutes, 1000 RPM) and collect 200 ul per well of the supernatant, being careful not to disturb pellet. Place the supernatant plate on ice. During the 7-hour step (see next) perform tryptase assay on supernatant that had been diluted 1:500. Resuspend cell pellet in 240 ul of CM media containing 0.5% DMSO and corresponding concentration of compound. Incubate CHMC cells for 7 hours at 37° C. (5% CO2). After incubation, pellet cells (1000 RPM, 10 minutes) and collect 225 ul per well and place in −80° C. until ready to perform ELISAS. ELISAS are performed on appropriately diluted samples (determined empirically for each donor cell population so that the sample measurement falls within the standard curve) following the supplier's instructions.
# [2] = test system: basophils in whole human peripheral blood; assay: Basophil IgE activation: histamine release assay; format: cell-based; details: Homo sapiens, anti-IgE activation
# Procedure: (§1) The basophil activation assay was carried out using whole human peripheral blood from donors allergic to dust mites with the majority of the red blood cells removed by dextran sedimentation. Human peripheral blood was mixed 1:1 with 3% dextran T500 and RBCs were allowed to settle for 20-25 min. The upper fraction was diluted with 3 volumes of D-PBS and cells were spun down for 10 min at 1500 rpm, RT. Supernatant was aspirated and cells were washed in an equal volume MT-buffer. Finally, cells were resuspended in MT-buffer containing 0.5% DMSO in the original blood volume. 80 uL cells were mixed with 20 uL compound in the presence of 0.5% DMSO, in triplicate, in a V-bottom 96-well tissue culture plate. A dose range of 8 compound concentrations was tested resulting in a 10-point dose response curve including maximum (stimulated) and minimum (unstimulated) response. […] The cells were stimulated for 30 minutes at 37° C., 5% CO2. The plate was spun for 10 min at 1500 rpm at room temperature and 80 uL the supernatant was harvested for histamine content analysis using the histamine ELISA kit supplied by Immunotech. The ELISA was performed according to supplier's instructions.
# [3] = test system: basophils in whole human peripheral blood; assay: Basophil ionomycin activation: histamine release assay; format: cell-based; details: Homo sapiens
# Procedure: Assays for ionomycin-induced basophil cell degranulation were carried out as described for the Basophil IgE or Dustmite Activation Assay (Section 6.4.6, supra), with the exception that following incubation with compound, cells were stimulated with 20 μl of 2 μM ionomycin.
# [4] = in vitro chromosomal aberration assay; format: cell-based
# [5] = format: in vivo; details: rat, oral doses of 50, 150 and 300 mg/kg given for 32 days
# [6] = Oral bioavailability / pharmacokinetics in rats; format: in vivo; details: rat, in vivo
# Procedure: Over 50 2,4-pyrimidinediamine compounds of the invention were tested for oral bioavailability. For the study, compounds were dissolved in various vehicles (e.g. PEG 400 solution and CMC suspension) for intravenous and oral dosing in the rats. Following administration of the drug, plasma samples were obtained and extracted. The plasma concentrations of the compounds were determined by high performance liquid chromatography/tandem mass spectrometry (LC/MS/MS) methods. Pharmacokinetic analyses were performed based on the plasma concentration data. The pharmacokinetic parameters of interest include Clearance (CL), Volume of distribution at steady-state (Vss), terminal half-life (t1/2), and oral bioavailability (% F).
# [7] = test system: cultured human mast cells (CHMC); assay: CHMC low cell density IgE activation: tryptase and LTC4 assays; format: cell-based; details: Homo sapiens, Mast cell, Low Density CHMC, anti-IgE activation, tryptase readout; read-out: CHMC anti-IgE Tryptase
# Outline: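 Cultured human mast cells at low density (1000-1500 per well) rested 1 h at 37° C, then stimulated with anti-IgE for 30 min at 37° C. Supernatant tryptase measured with fluorogenic substrate (30 min, room temperature); LTC4 quantified by ELISA on diluted supernatant.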
# [8] = test system: basophils in whole human peripheral blood; assay: Basophil dustmite activation: histamine release assay; format: cell-based; details: read-out: Basophils Dust mite Histmine IC50
# Procedure: as §1, with “The plate was spun for 10 min at 1500 rpm at room temperature and 80 uL the supernatant was harvested for histamine content analysis using the histamine ELISA kit supplied by Immunotech.” left out
# [9] = test system: cultured human mast cells (CHMC); assay: CHMC low cell density ionomycin activation: tryptase assay; format: cell-based; details: Homo sapiens, Mast cell, Low Density CHMC, ionomycin activation, tryptase readout; read-out: CHMC Ionomycin Tryptase
# Jurkat cells = assay: Jurkat toxicity: Cell Titer Glo assay; format: cell-based; details: Homo sapiens, 18 hours
# Procedure: Seed 50 μl cells (1×10^6/ml) into each well containing 50 μl compound. […] Shake plates for 1 minute to mix cells and compound. Incubate plates at 37° C. […] Next day, harvest 50 μl cells from each well, add to 50 μl Cell Titer Glo reagent ([…]). Shake plates for 1 minute. Read on luminometer.
# B-cell line BJAB = assay: BJAB toxicity: Cell Titer Glo assay; format: cell-based; details: Homo sapiens, 18 hours
# Procedure: Seed 50 μl cells (1×10^6/ml) into each well containing 50 μl compound. The final vehicle concentration is 0.5% DMSO, 1.5% MeOH. Shake plates for 1 minute to mix cells and compound. Incubate plates at 37° C. (5% CO2) for 18 hours. Next day, harvest 50 μl cells from each well, add to 50 μl Cell Titer Glo reagent ([…]). Shake plates for 1 minute. Read on luminometer.
# [10] = IL-13, read-out: CHMC high density IL-13
# [11] = LTC4, read-out: CHMC high density LTC4
# [12] = TNF-alpha, read-out: CHMC high density TNF-alpha
# [13] = hexosaminidase release, read-out: CHMC high density hexos
# [14] = histamine release, read-out: CHMC high density histamine
# [15] = tryptase release, read-out: CHMC high density tryptase
SMILES,"IC50 [1, 10] [nM]","IC50 [1, 11] [nM]","IC50 [1, 12] [nM]","IC50 [1, 13] [nM]","IC50 [1, 14] [nM]","IC50 [1, 15] [nM]",IC50 [2] [nM],IC50 [3] [nM],clastogenic potential [4],tolerability [5],metabolic stability in pharmacokinetics studies [6],IC50 [7] [nM],IC50 [8] [nM],IC50 [9] [nM],IC50 (Jurkat cells) [nM],IC50 (B-cell line BJAB) [nM]
"Nc1cccc(Nc2ncc(F)c(Nc3cccc(N)c3)n2)c1 [Compound R921302, N2,N4-Bis(3-aminophenyl)-5-fluoro-2,4-pyrimidinediamine]",1670,514,1170,682,1590,795,190,> 10000,not clastogenic,well tolerated,most metabolically stable compound,,,,,
"O=C(NCCO)c1cc2cc(Nc3ncc(F)c(Nc4cccc(O)c4)n3)ccc2o1 [Compound R926497, 5-Fluoro-N4-(3-hydroxyphenyl)-N2-[2-(N-2-hydroxyethylamino)carbonylbenzofuran-5-yl]-2,4-pyrimidinediamine]",> 10000,,1880,1110,1330,1230,270,> 10000,,,,138,205,> 10000,,
"OCCOc1cccc(Nc2ncc(F)c(Nc3cccc(OCCO)c3)n2)c1 [Compound R935075, N2,N4-Bis[3-(2-hydroxyethoxy)phenyl]-5-fluoro-2,4-pyrimidinediamine]",,< 220,> 2000,647,,1210,,,,,,930,,> 10000,> 4330,> 4330
"Cc1cc(Nc2ncc(F)c(Nc3cccc(O)c3)n2)cc(Cl)c1O [Compound R940233, N2-(3-Chloro-4-hydroxy-5-methylphenyl)-5-fluoro-N4-(3-hydroxyphenyl)-2,4-pyrimidinediamine]",1780,118,2250,577,586,642,,,,,,132,,> 10000,> 4330,> 4330
